Test results from patent US8304419B2, “Chemical compounds” (priority 2007, dated 2012).
Structures can show the parent of a compound that is named as a salt. Where two headings read alike, the source gives them in different places.

Tested on: HIV wild type (WTRVA)
Assay: HeLa cell assay, wild type virus (WTRVA)
Format: cell-based, HIV-1
Design: scale not given here
Details: Human immunodeficiency virus 1, HeLa
[1] = HeLa-CD4-LTR-β-gal cells, wild type virus, read-out: WTRVA activity level
[2] = HeLa cell assay, read-out: IC50 against WTRVA

SMILES: N#Cc1cc(Cl)cc(Oc2c(Cl)ccc(CNC(=O)c3[nH]c4cc(O)ccc4c3Br)c2F)c1 [Example 61, 3-bromo-N-({4-chloro-3-[(3-chloro-5-cyanophenyl)oxy]-2-fluorophenyl}methyl)-6-hydroxy-1H-indole-2-carboxamide trifluoroacetate]
- IC50 [1]: < 10 nM

SMILES: N#Cc1cc(Cl)cc(Oc2c(Cl)ccc(CNC(=O)c3cc4cc(Br)ccc4[nH]3)c2F)c1 [Example 29, 5-bromo-N-({4-chloro-3-[(3-chloro-5-cyanophenyl)oxy]-2-fluorophenyl}methyl)-1H-indole-2-carboxamide]
- IC50 [1]: 10 to 1000 nM

SMILES: COc1ccc(C(=O)NCc2ccc(Cl)c(Oc3cc(Cl)cc(C#N)c3)c2F)c(C)c1 [Example 17, N-({4-chloro-3-[(3-chloro-5-cyanophenyl)oxy]-2-fluorophenyl}methyl)-2-methyl-4-(methyloxy)benzamide]
- IC50 [1]: 10 to 1000 nM

SMILES: C#Cc1cc(Cl)cc(Oc2c(Cl)ccc(CNC(=O)c3[nH]cnc3Cl)c2F)c1 [Example 293, 4-chloro-N-({4-chloro-3-[(3-chloro-5-ethynylphenyl)oxy]-2-fluorophenyl}methyl)-1H-imidazole-5-carboxamide]
- IC50 [2]: < 10 nM

SMILES: N#Cc1cc(Cl)cc(Oc2c(Cl)ccc(CNC(=O)c3cc4cc(NC(=O)CCN)ccc4[nH]3)c2F)c1 [Example 116, 5-(β-alanylamino)-N-({4-chloro-3-[(3-chloro-5-cyanophenyl)oxy]-2-fluorophenyl}methyl)-1H-indole-2-carboxamide]
- IC50 [1]: < 10 nM

SMILES: N#Cc1cc(Cl)cc(Oc2c(Cl)ccc(CNC(=O)c3[nH]ccc3Cl)c2F)c1 [Example 128, 3-chloro-N-({4-chloro-3-[(3-chloro-5-cyanophenyl)oxy]-2-fluorophenyl}methyl)-1H-pyrrole-2-carboxamide]
- IC50 [2]: < 10 nM
- IC50 [1]: < 10 nM

SMILES: N#Cc1cc(Oc2c(Cl)ccc(CNC(=O)c3[nH]c(N)nc3Cl)c2F)cc(C(F)F)c1 [Example 327, 2-amino-4-chloro-N-[(4-chloro-3-{[3-cyano-5-(difluoromethyl)phenyl]oxy}-2-fluorophenyl)methyl]-1H-imidazole-5-carboxamide trifluoroacetate]
- IC50 [2]: < 10 nM

SMILES: Cc1c(C(=O)NCc2ccc(Cl)c(Oc3cc(Cl)cc(C#N)c3)c2F)[nH]c2ccccc12 [Example 39, N-({4-chloro-3-[(3-chloro-5-cyanophenyl)oxy]-2-fluorophenyl}methyl)-3-methyl-1H-indole-2-carboxamide]
- IC50 [1]: < 10 nM

SMILES: N#Cc1cc(Cl)cc(Oc2c(Cl)ccc(CNC(=O)c3cc4ccc(N)cc4[nH]3)c2F)c1 [Example 123, 6-amino-N-({4-chloro-3-[(3-chloro-5-cyanophenyl)oxy]-2-fluorophenyl}methyl)-1H-indole-2-carboxamide trifluoroacetate]
- IC50 [1]: < 10 nM

SMILES: N#Cc1cc(Cl)cc(Oc2c(Cl)ccc(CNC(=O)c3cc4ccc(OCc5ccccc5)cc4[nH]3)c2F)c1 [Example 43, N-({4-chloro-3-[(3-chloro-5-cyanophenyl)oxy]-2-fluorophenyl}methyl)-6-[(phenylmethyl)oxy]-1H-indole-2-carboxamide]
- IC50 [1]: 10 to 1000 nM

SMILES: COc1cc(C#N)cc(Oc2c(Cl)ccc(CNC(=O)c3[nH]c(N)nc3Cl)c2F)c1 [Example 366, 2-amino-4-chloro-N-[(4-chloro-3-{[3-cyano-5-(methyloxy)phenyl]oxy}-2-fluorophenyl)methyl]-1H-imidazole-5-carboxamide trifluoroacetate]
- IC50 [2]: < 10 nM

SMILES: N#Cc1cc(Cl)cc(Oc2c(Cl)ccc(CNC(=O)c3n[nH]c([N+](=O)[O-])c3Br)c2F)c1 [Example 69, 4-bromo-N-({4-chloro-3-[(3-chloro-5-cyanophenyl)oxy]-2-fluorophenyl}methyl)-5-nitro-1H-pyrazole-3-carboxamide trifluoroacetate]
- IC50 [1]: 10 to 1000 nM

SMILES: N#Cc1cc(Cl)cc(Oc2c(C(F)F)ccc(CNC(=O)c3[nH]c(N)nc3Cl)c2F)c1 [Example 253, 2-amino-4-chloro-N-{[3-[(3-chloro-5-cyanophenyl)oxy]-4-(difluoromethyl)-2-fluorophenyl]methyl}-1H-imidazole-5-carboxamide]
- IC50 [2]: < 10 nM

SMILES: Cc1nc(Cl)c(C(=O)NCc2cc(C#N)c(Cl)c(Oc3cc(Cl)cc(C#N)c3)c2F)[nH]1 [Example 304, 4-chloro-N-({4-chloro-3-[(3-chloro-5-cyanophenyl)oxy]-5-cyano-2-fluorophenyl}methyl)-2-methyl-1H-imidazole-5-carboxamide trifluoroacetate]
- IC50 [2]: < 10 nM

SMILES: Cc1nc(Cl)c(C(=O)NCc2ccc(Cl)c(Oc3cc(Cl)cc(C#N)c3)c2F)[nH]1 [Example 137, 4-chloro-N-({4-chloro-3-[(3-chloro-5-cyanophenyl)oxy]-2-fluorophenyl}methyl)-2-methyl-1H-imidazole-5-carboxamide]
- IC50 [1]: < 10 nM

SMILES: Cn1ccnc1C(=O)NCc1ccc(Cl)c(Oc2cc(Cl)cc(C#N)c2)c1F [Example 72, N-({4-chloro-3-[(3-chloro-5-cyanophenyl)oxy]-2-fluorophenyl}methyl)-1-methyl-1H-imidazole-2-carboxamide trifluoroacetate]
- IC50 [1]: 10 to 1000 nM

SMILES: N#Cc1cc(Cl)cc(Oc2c(Cl)ccc(CNC(=O)c3nc4ccccc4[nH]3)c2F)c1 [Example 35, N-({4-chloro-3-[(3-chloro-5-cyanophenyl)oxy]-2-fluorophenyl}methyl)-1H-benzimidazole-2-carboxamide]
- IC50 [1]: < 10 nM

SMILES: N#Cc1cc(Cl)cc(Oc2c(Cl)ccc(CNC(=O)c3cn[nH]c3)c2F)c1 [Example 100, N-({4-chloro-3-[(3-chloro-5-cyanophenyl)oxy]-2-fluorophenyl}methyl)-1H-pyrazole-4-carboxamide trifluoroacetate]
- IC50 [1]: < 10 nM

SMILES: N#Cc1cc(Cl)cc(Oc2c(Cl)ccc(CNC(=O)c3cc4cc(OCC(CO)CO)ccc4[nH]3)c2F)c1 [Example 22, N-({4-chloro-3-[(3-chloro-5-cyanophenyl)oxy]-2-fluorophenyl}methyl)-5-{[3-hydroxy-2-(hydroxymethyl)propyl]oxy}-1H-indole-2-carboxamide]
- IC50 [1]: < 10 nM

SMILES: Cc1nc(Cl)c(C(=O)NCc2ccc(Cl)c(Oc3cc(Br)cc(C#N)c3)c2F)[nH]1 [Example 299, N-({3-[(3-bromo-5-cyanophenyl)oxy]-4-chloro-2-fluorophenyl}methyl)-4-chloro-2-methyl-1H-imidazole-5-carboxamide]
- IC50 [2]: < 10 nM

SMILES: Cc1cc(C#N)cc(Oc2c(Cl)ccc(CNC(=O)c3[nH]c(C)nc3Cl)c2F)n1 [Example 271, 4-Chloro-N-({4-chloro-3-[(4-cyano-6-methyl-2-pyridinyl)oxy]-2-fluorophenyl}methyl)-2-methyl-1H-imidazole-5-carboxamide]
- IC50 [2]: < 10 nM

SMILES: N#Cc1cc(Cl)cc(Oc2c(Cl)ccc(CNC(=O)c3[nH]c(N)nc3Br)c2F)c1 [Example 235, 2-amino-4-bromo-N-({4-chloro-3-[(3-chloro-5-cyanophenyl)oxy]-2-fluorophenyl}methyl)-1H-imidazole-5-carboxamide trifluoroacetate]
- IC50 [2]: < 10 nM

SMILES: N#Cc1cc(Oc2c(Cl)ccc(CNC(=O)c3[nH]cnc3Cl)c2F)cc(C2CC2)c1 [Example 152, 4-chloro-N-({4-chloro-3-[(3-cyano-5-cyclopropylphenyl)oxy]-2-fluorophenyl}methyl)-1H-imidazole-5-carboxamide]
- IC50 [2]: < 10 nM

SMILES: N#Cc1cc(Cl)cc(Oc2c(Cl)ccc(CNC(=O)c3cc4cc([N+](=O)[O-])ccc4o3)c2F)c1 [Example 50, N-({4-chloro-3-[(3-chloro-5-cyanophenyl)oxy]-2-fluorophenyl}methyl)-5-nitro-1-benzofuran-2-carboxamide trifluoroacetate]
- IC50 [1]: 10 to 1000 nM

SMILES: N#Cc1cc(Cl)cc(Oc2c(Cl)ccc(Cn3cnc4nc[nH]c4c3=O)c2F)c1 [Example 368, 3-chloro-5-({6-chloro-2-fluoro-3-[(6-oxo-6,7-dihydro-1H-purin-1-yl)methyl]phenyl}oxy)benzonitrile trifluoroacetate]
- IC50 [2]: < 10 nM

SMILES: CN(C)Cc1cc(C#N)cc(Oc2c(Cl)ccc(CNC(=O)c3[nH]cnc3Cl)c2F)c1 [Example 311, 4-chloro-N-{[4-chloro-3-({3-cyano-5-[(dimethylamino)methyl]phenyl}oxy)-2-fluorophenyl]methyl}-1H-imidazole-5-carboxamide trifluoroacetate]
- IC50 [2]: < 10 nM

SMILES: N#Cc1cc(Cl)cc(Oc2c(Cl)ccc(CNC(=O)c3csc(-c4ccncc4)n3)c2F)c1 [Example 88, N-({4-chloro-3-[(3-chloro-5-cyanophenyl)oxy]-2-fluorophenyl}methyl)-2-(4-pyridinyl)-1,3-thiazole-4-carboxamide trifluoroacetate]
- IC50 [1]: 10 to 1000 nM

SMILES: CCc1cc(C#N)cc(Oc2c(Cl)ccc(CNC(=O)c3[nH]c(C)nc3Cl)c2F)n1 [Example 274, 4-Chloro-N-({4-chloro-3-[(4-cyano-6-ethyl-2-pyridinyl)oxy]-2-fluorophenyl}methyl)-2-methyl-1H-imidazole-5-carboxamide]
- IC50 [2]: < 10 nM

SMILES: Cc1nc(Br)c(C(=O)NCc2ccc(Cl)c(Oc3cc(Cl)cc(C#N)c3)c2F)[nH]1 [Example 134, 4-bromo-N-({4-chloro-3-[(3-chloro-5-cyanophenyl)oxy]-2-fluorophenyl}methyl)-2-methyl-1H-imidazole-5-carboxamide]
- IC50 [1]: < 10 nM

SMILES: COc1cccc2[nH]c(C(=O)NCc3ccc(Cl)c(Oc4cc(Cl)cc(C#N)c4)c3F)cc12 [Example 34, N-({4-chloro-3-[(3-chloro-5-cyanophenyl)oxy]-2-fluorophenyl}methyl)-4-(methyloxy)-1H-indole-2-carboxamide]
- IC50 [1]: < 10 nM

SMILES: N#Cc1cc(Cl)cc(Oc2c(Cl)ccc(CNC(=O)c3[nH]cnc3Cl)c2F)c1Cl [Example 144, 4-chloro-N-({4-chloro-3-[(2,5-dichloro-3-cyanophenyl)oxy]-2-fluorophenyl}methyl)-1H-imidazole-5-carboxamide]
- IC50 [2]: < 10 nM

SMILES: N#Cc1cc(Cl)cc(Oc2c(Cl)ccc(CNC(=O)c3ccno3)c2F)c1 [Example 93, N-({4-chloro-3-[(3-chloro-5-cyanophenyl)oxy]-2-fluorophenyl}methyl)-5-isoxazolecarboxamide]
- IC50 [1]: 10 to 1000 nM

SMILES: N#Cc1cc(Cl)cc(Oc2c(Cl)ccc(CNC(=O)c3cc4ccccc4[nH]3)c2F)c1 [Example 28, N-({4-chloro-3-[(3-chloro-5-cyanophenyl)oxy]-2-fluorophenyl}methyl)-1H-indole-2-carboxamide]
- IC50 [1]: < 10 nM
